Molecules are shown by their SMILES.

One may read the melting point as the temperature, or range, at which the solid turns liquid. Compound `O=C(O)c1cncc(NC(=S)Nc2cccc(Br)c2)c1` [Compound 13, 5-(3-(3-Bromophenyl)thioureido) pyridine-3-carboxylic acid] registered a melting point greater than 300 °C.
The compound `O=C(O)c1cncc(NC(=S)Nc2ccc(Br)cc2)c1` [Compound 7, 5-(3-(4-Bromophenyl)thioureido) pyridine-3-carboxylic acid] yielded a melting point greater than 300 °C.
`Cc1ccc(NC(=S)Nc2cncc(C(=O)O)c2)cc1Cl` [Compound 9, 5-(3-(3-Chloro-4-methylphenyl)thioureido) pyridine-3-carboxylic acid]: the melting point is greater than 300 °C.
Regarding `O=C(O)c1cncc(NC(=S)Nc2ccc([N+](=O)[O-])cc2)c1` [Compound 5, 5-(3-(4-Nitrophenyl)thioureido) pyridine-3-carboxylic acid], the melting point was greater than 300 °C.
`O=C(O)c1cncc(NC(=S)Nc2ccc(F)cc2)c1` [Compound 4, 5-(3-(4-Fluorophenyl)thioureido)pyridine-3-carboxylic acid] gave a melting point greater than 300 °C.
`Cc1ccc(NC(=S)Nc2cncc(C(=O)O)c2)cc1` [Compound 3, 5-(3-p-Tolylthioureido)pyridine-3-carboxylic acid] yielded a melting point greater than 300 °C.
Take `O=C(O)c1cncc(NC(=S)Nc2ccccc2Br)c1` [Compound 12, 5-(3-(2-Bromophenyl)thioureido) pyridine-3-carboxylic acid]: the melting point is greater than 300 °C.
As for `O=C(O)c1cncc(NC(=S)Nc2ccc(C(F)(F)F)cc2)c1` [Compound 8, 5-(3-(4-(Trifluoromethyl)phenyl)thioureido) pyridine-3-carboxylic acid], the melting point is greater than 300 °C.
As to `O=C(O)c1cncc(NC(=S)Nc2ccc(Cl)cc2)c1` [Compound 2, 5-(3-(4-Chlorophenyl)thioureido)pyridine-3-carboxylic acid], the melting point was greater than 300 °C.
The result for `O=C(O)c1cncc(NC(=S)Nc2ccccc2F)c1` [Compound 10, 5-(3-(2-Fluorophenyl)thioureido) pyridine-3-carboxylic acid] reads greater than 300 °C.
In the case of `COc1ccc(NC(=S)Nc2cncc(C(=O)O)c2)cc1` [Compound 6, 5-(3-(4-Methoxyphenyl)thioureido) pyridine-3-carboxylic acid], the melting point was greater than 300 °C.
In turn, `O=C(O)c1cncc(NC(=S)Nc2ccccc2)c1` [Compound 1, 5-(3-Phenylthioureido)pyridine-3-carboxylic acid] returned a melting point greater than 300 °C.
`O=C(O)c1cncc(NC(=S)Nc2cccc(F)c2)c1` [Compound 11, 5-(3-(3-Fluorophenyl)thioureido) pyridine-3-carboxylic acid] came in with a melting point greater than 300 °C.

Source of the values: article PMC7362424, “Structural elucidation, molecular docking, α-amylase and α-glucosidase inhibition studies of 5-amino-nicotinic acid derivatives” (BMC Chemistry, 2020).
